tested on: MDA-MB-231; assay: normalised response (% of control), CellTox Green; higher = less cell death (100 = DMSO, 0 = benzethonium chloride kill control); conditions: incubation time: 72 h
In short: (§1)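 Two readouts were taken after 72 h: CellTox Green fluorescence (485/520 nm) first, then CellTiter-Glo luminescence after 10 min at room temperature. Breast cancer cell lines had been seeded as 20 µl suspension into 384-well plates holding compound at 5 concentrations in 10-fold steps across a compound-specific 10,000-fold range. Each value is a normalised signal at a single concentration, with plates scaled to 0.1 % DMSO (100) and a positive kill control (0).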

Compound	normalised response
Cc1cc2c(F)c(Oc3ncnn4cc(OC[C@@H](C)O)c(C)c34)ccc2[nH]1 [Brivanib] (10 nM)	111%
Nc1nc(Cl)nc2c1ncn2[C@@H]1O[C@H](CO)[C@@H](O)[C@@H]1F [Clofarabine] (100 nM)	106%
CCN(CC)CCOc1ccc(C(=C(Cl)c2ccccc2)c2ccccc2)cc1 [Clomifene] (100 nM)	106%
NC1(c2ccc(-c3nc4ccn5c(=O)[nH]nc5c4cc3-c3ccccc3)cc2)CCC1 [MK-2206] (10 nM)	115%
NC(=O)c1cccc2cn(-c3ccc([C@@H]4CCCNC4)cc3)nc12 [MK-4827] (100 nM)	107%
O=C(c1cc(Cc2n[nH]c(=O)c3ccccc23)ccc1F)N1CCN(C(=O)C2CC2)CC1 [Olaparib] (100 nM)	97.4%
CN1CCN(c2nc(C3=C(c4c[nH]c5ccccc45)C(=O)NC3=O)c3ccccc3n2)CC1 [Sotrastaurin] (100 nM)	67%
COc1cc2c(N3CCN(C(=O)Nc4ccc(OC(C)C)cc4)CC3)ncnc2cc1OCCCN1CCCCC1 [Tandutinib] (10 nM)	99.9%
CN1CCc2c(c3ccccc3n2Cc2ccc(C(=O)NO)cc2)C1 [Tubastatin A] (100 nM)	116%

tested on: HCC1937; assay: as above; conditions: incubation time: 72 h
In short: as §1

Compound	normalised response
Cc1cc2c(F)c(Oc3ncnn4cc(OC[C@@H](C)O)c(C)c34)ccc2[nH]1 [Brivanib] (10 nM)	82%
Nc1nc(Cl)nc2c1ncn2[C@@H]1O[C@H](CO)[C@@H](O)[C@@H]1F [Clofarabine] (100 nM)	62.3%
CCN(CC)CCOc1ccc(C(=C(Cl)c2ccccc2)c2ccccc2)cc1 [Clomifene] (100 nM)	59.1%
NC1(c2ccc(-c3nc4ccn5c(=O)[nH]nc5c4cc3-c3ccccc3)cc2)CCC1 [MK-2206] (10 nM)	81.7%
NC(=O)c1cccc2cn(-c3ccc([C@@H]4CCCNC4)cc3)nc12 [MK-4827] (100 nM)	111%
O=C(c1cc(Cc2n[nH]c(=O)c3ccccc23)ccc1F)N1CCN(C(=O)C2CC2)CC1 [Olaparib] (100 nM)	94.9%
CN1CCN(c2nc(C3=C(c4c[nH]c5ccccc45)C(=O)NC3=O)c3ccccc3n2)CC1 [Sotrastaurin] (100 nM)	64.6%
COc1cc2c(N3CCN(C(=O)Nc4ccc(OC(C)C)cc4)CC3)ncnc2cc1OCCCN1CCCCC1 [Tandutinib] (10 nM)	81.3%
CN1CCc2c(c3ccccc3n2Cc2ccc(C(=O)NO)cc2)C1 [Tubastatin A] (100 nM)	92.5%

tested on: CAL-51; assay: as above; conditions: incubation time: 72 h
In short: as §1

Compound	normalised response
Cc1cc2c(F)c(Oc3ncnn4cc(OC[C@@H](C)O)c(C)c34)ccc2[nH]1 [Brivanib] (10 nM)	108%
Nc1nc(Cl)nc2c1ncn2[C@@H]1O[C@H](CO)[C@@H](O)[C@@H]1F [Clofarabine] (100 nM)	86%
CCN(CC)CCOc1ccc(C(=C(Cl)c2ccccc2)c2ccccc2)cc1 [Clomifene] (100 nM)	112%
NC1(c2ccc(-c3nc4ccn5c(=O)[nH]nc5c4cc3-c3ccccc3)cc2)CCC1 [MK-2206] (10 nM)	83.6%
NC(=O)c1cccc2cn(-c3ccc([C@@H]4CCCNC4)cc3)nc12 [MK-4827] (100 nM)	89.4%
O=C(c1cc(Cc2n[nH]c(=O)c3ccccc23)ccc1F)N1CCN(C(=O)C2CC2)CC1 [Olaparib] (100 nM)	81.9%
CN1CCN(c2nc(C3=C(c4c[nH]c5ccccc45)C(=O)NC3=O)c3ccccc3n2)CC1 [Sotrastaurin] (100 nM)	98%
COc1cc2c(N3CCN(C(=O)Nc4ccc(OC(C)C)cc4)CC3)ncnc2cc1OCCCN1CCCCC1 [Tandutinib] (10 nM)	95%
CN1CCc2c(c3ccccc3n2Cc2ccc(C(=O)NO)cc2)C1 [Tubastatin A] (100 nM)	105%

tested on: CAL-120; assay: as above; conditions: incubation time: 72 h
In short: as §1

Compound	normalised response
Cc1cc2c(F)c(Oc3ncnn4cc(OC[C@@H](C)O)c(C)c34)ccc2[nH]1 [Brivanib] (10 nM)	98%
Nc1nc(Cl)nc2c1ncn2[C@@H]1O[C@H](CO)[C@@H](O)[C@@H]1F [Clofarabine] (100 nM)	107%
CCN(CC)CCOc1ccc(C(=C(Cl)c2ccccc2)c2ccccc2)cc1 [Clomifene] (100 nM)	102%
NC1(c2ccc(-c3nc4ccn5c(=O)[nH]nc5c4cc3-c3ccccc3)cc2)CCC1 [MK-2206] (10 nM)	103%
NC(=O)c1cccc2cn(-c3ccc([C@@H]4CCCNC4)cc3)nc12 [MK-4827] (100 nM)	102%
O=C(c1cc(Cc2n[nH]c(=O)c3ccccc23)ccc1F)N1CCN(C(=O)C2CC2)CC1 [Olaparib] (100 nM)	95%
CN1CCN(c2nc(C3=C(c4c[nH]c5ccccc45)C(=O)NC3=O)c3ccccc3n2)CC1 [Sotrastaurin] (100 nM)	83.6%
COc1cc2c(N3CCN(C(=O)Nc4ccc(OC(C)C)cc4)CC3)ncnc2cc1OCCCN1CCCCC1 [Tandutinib] (10 nM)	87.9%
CN1CCc2c(c3ccccc3n2Cc2ccc(C(=O)NO)cc2)C1 [Tubastatin A] (100 nM)	103%

tested on: MCF-10A; assay: as above; conditions: incubation time: 72 h
In short: as §1

Compound	normalised response
Cc1cc2c(F)c(Oc3ncnn4cc(OC[C@@H](C)O)c(C)c34)ccc2[nH]1 [Brivanib] (10 nM)	89.7%
Nc1nc(Cl)nc2c1ncn2[C@@H]1O[C@H](CO)[C@@H](O)[C@@H]1F [Clofarabine] (100 nM)	99.3%
CCN(CC)CCOc1ccc(C(=C(Cl)c2ccccc2)c2ccccc2)cc1 [Clomifene] (100 nM)	104%
NC1(c2ccc(-c3nc4ccn5c(=O)[nH]nc5c4cc3-c3ccccc3)cc2)CCC1 [MK-2206] (10 nM)	111%
NC(=O)c1cccc2cn(-c3ccc([C@@H]4CCCNC4)cc3)nc12 [MK-4827] (100 nM)	84.8%
O=C(c1cc(Cc2n[nH]c(=O)c3ccccc23)ccc1F)N1CCN(C(=O)C2CC2)CC1 [Olaparib] (100 nM)	98.9%
CN1CCN(c2nc(C3=C(c4c[nH]c5ccccc45)C(=O)NC3=O)c3ccccc3n2)CC1 [Sotrastaurin] (100 nM)	91.4%
COc1cc2c(N3CCN(C(=O)Nc4ccc(OC(C)C)cc4)CC3)ncnc2cc1OCCCN1CCCCC1 [Tandutinib] (10 nM)	104%
CN1CCc2c(c3ccccc3n2Cc2ccc(C(=O)NO)cc2)C1 [Tubastatin A] (100 nM)	101%

tested on: BT-549; assay: as above; conditions: incubation time: 72 h
In short: as §1

Compound	normalised response
Cc1cc2c(F)c(Oc3ncnn4cc(OC[C@@H](C)O)c(C)c34)ccc2[nH]1 [Brivanib] (10 nM)	60.1%
Nc1nc(Cl)nc2c1ncn2[C@@H]1O[C@H](CO)[C@@H](O)[C@@H]1F [Clofarabine] (100 nM)	102%
CCN(CC)CCOc1ccc(C(=C(Cl)c2ccccc2)c2ccccc2)cc1 [Clomifene] (100 nM)	105%
NC1(c2ccc(-c3nc4ccn5c(=O)[nH]nc5c4cc3-c3ccccc3)cc2)CCC1 [MK-2206] (10 nM)	86.6%
O=C(c1cc(Cc2n[nH]c(=O)c3ccccc23)ccc1F)N1CCN(C(=O)C2CC2)CC1 [Olaparib] (100 nM)	105%
CN1CCN(c2nc(C3=C(c4c[nH]c5ccccc45)C(=O)NC3=O)c3ccccc3n2)CC1 [Sotrastaurin] (100 nM)	99.3%
COc1cc2c(N3CCN(C(=O)Nc4ccc(OC(C)C)cc4)CC3)ncnc2cc1OCCCN1CCCCC1 [Tandutinib] (10 nM)	98.8%
CN1CCc2c(c3ccccc3n2Cc2ccc(C(=O)NO)cc2)C1 [Tubastatin A] (100 nM)	86.2%

tested on: HCC1143; assay: as above; conditions: incubation time: 72 h
In short: as §1

Compound	normalised response
Cc1cc2c(F)c(Oc3ncnn4cc(OC[C@@H](C)O)c(C)c34)ccc2[nH]1 [Brivanib] (10 nM)	111%
Nc1nc(Cl)nc2c1ncn2[C@@H]1O[C@H](CO)[C@@H](O)[C@@H]1F [Clofarabine] (100 nM)	105%
CCN(CC)CCOc1ccc(C(=C(Cl)c2ccccc2)c2ccccc2)cc1 [Clomifene] (100 nM)	112%
NC1(c2ccc(-c3nc4ccn5c(=O)[nH]nc5c4cc3-c3ccccc3)cc2)CCC1 [MK-2206] (10 nM)	110%
NC(=O)c1cccc2cn(-c3ccc([C@@H]4CCCNC4)cc3)nc12 [MK-4827] (100 nM)	110%
O=C(c1cc(Cc2n[nH]c(=O)c3ccccc23)ccc1F)N1CCN(C(=O)C2CC2)CC1 [Olaparib] (100 nM)	110%
CN1CCN(c2nc(C3=C(c4c[nH]c5ccccc45)C(=O)NC3=O)c3ccccc3n2)CC1 [Sotrastaurin] (100 nM)	76.4%
COc1cc2c(N3CCN(C(=O)Nc4ccc(OC(C)C)cc4)CC3)ncnc2cc1OCCCN1CCCCC1 [Tandutinib] (10 nM)	86.5%
CN1CCc2c(c3ccccc3n2Cc2ccc(C(=O)NO)cc2)C1 [Tubastatin A] (100 nM)	105%

tested on: MFM-223; assay: as above; conditions: incubation time: 72 h
In short: as §1

Compound	normalised response
Nc1nc(Cl)nc2c1ncn2[C@@H]1O[C@H](CO)[C@@H](O)[C@@H]1F [Clofarabine] (100 nM)	99.3%
CCN(CC)CCOc1ccc(C(=C(Cl)c2ccccc2)c2ccccc2)cc1 [Clomifene] (100 nM)	102%
NC1(c2ccc(-c3nc4ccn5c(=O)[nH]nc5c4cc3-c3ccccc3)cc2)CCC1 [MK-2206] (10 nM)	104%
NC(=O)c1cccc2cn(-c3ccc([C@@H]4CCCNC4)cc3)nc12 [MK-4827] (100 nM)	82.5%
O=C(c1cc(Cc2n[nH]c(=O)c3ccccc23)ccc1F)N1CCN(C(=O)C2CC2)CC1 [Olaparib] (100 nM)	103%
COc1cc2c(N3CCN(C(=O)Nc4ccc(OC(C)C)cc4)CC3)ncnc2cc1OCCCN1CCCCC1 [Tandutinib] (10 nM)	78.6%
CN1CCc2c(c3ccccc3n2Cc2ccc(C(=O)NO)cc2)C1 [Tubastatin A] (100 nM)	93.8%

tested on: BT-474; assay: as above; conditions: incubation time: 72 h
In short: as §1

Compound	normalised response
Cc1cc2c(F)c(Oc3ncnn4cc(OC[C@@H](C)O)c(C)c34)ccc2[nH]1 [Brivanib] (10 nM)	99.8%
Nc1nc(Cl)nc2c1ncn2[C@@H]1O[C@H](CO)[C@@H](O)[C@@H]1F [Clofarabine] (100 nM)	104%
CCN(CC)CCOc1ccc(C(=C(Cl)c2ccccc2)c2ccccc2)cc1 [Clomifene] (100 nM)	96.8%
NC1(c2ccc(-c3nc4ccn5c(=O)[nH]nc5c4cc3-c3ccccc3)cc2)CCC1 [MK-2206] (10 nM)	99%
NC(=O)c1cccc2cn(-c3ccc([C@@H]4CCCNC4)cc3)nc12 [MK-4827] (100 nM)	88.2%
O=C(c1cc(Cc2n[nH]c(=O)c3ccccc23)ccc1F)N1CCN(C(=O)C2CC2)CC1 [Olaparib] (100 nM)	96.5%
CN1CCN(c2nc(C3=C(c4c[nH]c5ccccc45)C(=O)NC3=O)c3ccccc3n2)CC1 [Sotrastaurin] (100 nM)	102%
COc1cc2c(N3CCN(C(=O)Nc4ccc(OC(C)C)cc4)CC3)ncnc2cc1OCCCN1CCCCC1 [Tandutinib] (10 nM)	84.8%
CN1CCc2c(c3ccccc3n2Cc2ccc(C(=O)NO)cc2)C1 [Tubastatin A] (100 nM)	101%

tested on: Hs578T; assay: as above; conditions: incubation time: 72 h
In short: as §1

Compound	normalised response
Cc1cc2c(F)c(Oc3ncnn4cc(OC[C@@H](C)O)c(C)c34)ccc2[nH]1 [Brivanib] (10 nM)	88.4%
Nc1nc(Cl)nc2c1ncn2[C@@H]1O[C@H](CO)[C@@H](O)[C@@H]1F [Clofarabine] (100 nM)	90.3%

From the supplement of paper PMC4862054
